This is an account of results in patent US4157347A, “N-cyano isothioureas” (Bristol-Myers Company, priority 1978, dated 1979).

Data set [1] concerns the target T1, histamine H2-receptors (Cavia porcellus, UniProt P47747).
T1 construct: The spontaneously beating right atrium was dissected free from other tissues; from tissue; host or cells: isolated spontaneously beating right atrium of male Hartley guinea pigs
The settings on record: literature, in words; cited from earlier work.

Another data set deals with gastric secretion. Particulars: in words, cited from earlier work.
For data set [2] the following is noted: in words; cited from earlier work.
For data set [3], the target named is T1, histamine H2-receptors. Description: Histamine H2-receptor antagonism, isolated guinea pig right atria assay. The class given is cell-based. The settings on record: cumulative histamine 1×10^-7 to 3×10^-5 M. As to the method:
Subsequent investigations by Hughes and Coret, Proc. Soc. […] Black et al., Agents and Actions, 3, 133 (1973) and Brimblecombe et al., Fed. […] The present comparative studies were carried out using a modification of the procedure reported by Reinhardt et al., Agents and Actions, 4, 217 (1974).
Male Hartley strain guinea pigs (350-450 gm.) were sacrificed by a blow on the head. The heart was excised and placed in a Petri dish of oxygenated (95% O2, 5% CO2) modified Krebs solution (g./liter: NaCl 6.6, KCl 0.35, MgSO4.7 H2 O 0.295, KH2 PO4 0.162, CaCl2 0.238, NaHCO3 2.1 and dextrose 2.09). The spontaneously beating right atrium was dissected free from other tissues and a silk thread (4-0) attached to each end. The atrium was suspended in a 20 ml. muscle chamber containing oxygenated modified Krebs solution maintained at 32° C. Atrial contractions were recorded isometrically by means of a Grass FT 0.03 force displacement transducer and recordings of contractile force and rate were made with a Beckman RP Dynograph.
A resting tension of 1 g. was applied to the atrium and it was allowed to equilibrate for 1 hour.
Concentration-response curve displacement factors were calculated as follows: [formula] The factor obtained for BL-5641 was then expressed as a ratio of the factor obtained for cimetidine. [formula]

For data set [4] the following is noted: clinical, in words; cited from earlier work.
Another data set relates to H2 receptors. Particulars: in words; cited from earlier work.

T1 sequence (P47747 whole entry): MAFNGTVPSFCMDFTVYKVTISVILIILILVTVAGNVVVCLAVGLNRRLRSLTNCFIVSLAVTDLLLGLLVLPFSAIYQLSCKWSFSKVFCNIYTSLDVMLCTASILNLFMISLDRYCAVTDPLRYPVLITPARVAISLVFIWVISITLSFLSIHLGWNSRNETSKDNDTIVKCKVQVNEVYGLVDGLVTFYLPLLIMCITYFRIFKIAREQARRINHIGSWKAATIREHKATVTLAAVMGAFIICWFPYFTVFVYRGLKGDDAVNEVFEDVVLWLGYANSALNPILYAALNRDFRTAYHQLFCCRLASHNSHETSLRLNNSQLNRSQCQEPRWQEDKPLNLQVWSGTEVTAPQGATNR

As to `CNC(=S)NCCCCc1cnc[nH]1` [Burimamide], on histamine H2-receptors [1], the “effect on histamine H2-receptors / contractile rate of guinea pig right atria” value is recorded as “a competitive antagonist of these receptors”. Further, the “inhibition of gastric secretion” value with gastric secretion (animals and man) was “inhibits gastric secretion in animals and man”. In the data set on gastric secretion, the “clinical effectiveness as H2 receptor antagonist” value is recorded as “first clinically effective H2 receptor antagonist”. For the same compound, the oral absorption entry in data set [2] is recorded as “oral absorption is poor”.
For the compound `NCCc1c[nH]cn1` [Histamine], at histamine H2-receptors [3], the “concentration of maximal response (histamine-induced increase in atrial rate)” value turned out to be 30 µM. Besides, the “effect on histamine H2-receptors / contractile rate of guinea pig right atria” value on histamine H2-receptors [1] is “concentration-related increases in the contractile rate”.
With `CNC(=S)NCCSCc1[nH]cnc1C` [Metiamide], in data set [4], the “toxicity (agranulocytosis)” value is given as “toxicity (agranulocytosis)”. For the same compound, the “oral activity in man” value in data set [2] was “orally active in man”. Further, the H2 antagonist potency/effectiveness result with H2 receptors is reported as “more potent than burimamide”.
